From US11572350B1, “Benzothia(di)azepine compounds and their use as bile acid modulators” (Albireo AB, priority 2020, dated 2023)

How the values were obtained:
human IBAT = molecular target: T1, human IBAT (Homo sapiens, UniProt Q12908); assay: IBAT (h/m) assay: 3H-taurocholic acid uptake in human IBAT-overexpressing cells; format: cell-based; details: 0.25 μM 3H-taurocholic acid and 5 μM cold taurocholic acid, 20 minutes, highest test concentration 10 μM, read-out: hIBAT IC50
T1 construct: expressed in transfected cells; kept under Puromycin selection
T1 sequence (Q12908 1-348): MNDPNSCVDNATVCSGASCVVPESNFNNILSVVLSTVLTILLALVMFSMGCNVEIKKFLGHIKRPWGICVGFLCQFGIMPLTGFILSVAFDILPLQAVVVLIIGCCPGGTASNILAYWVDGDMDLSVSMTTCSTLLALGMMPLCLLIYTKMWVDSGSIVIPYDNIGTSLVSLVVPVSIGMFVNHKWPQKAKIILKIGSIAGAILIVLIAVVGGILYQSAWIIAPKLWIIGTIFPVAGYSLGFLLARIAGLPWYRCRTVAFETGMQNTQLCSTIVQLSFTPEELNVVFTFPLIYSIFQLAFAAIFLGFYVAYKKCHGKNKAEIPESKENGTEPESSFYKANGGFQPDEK
Description: IBAT (h/m) Assay Protocol
10,000 cells (Human or Mouse IBAT-overexpressing cells) were seeded in 96-wells plate (Corning CLS3809) in 200 μL MEM-alpha medium (Gibco 12571-063) supplemented with 10% FBS (Gibco 10438026) containing Puromycin (Gibco A1113803) (10 μg/mL) and incubated at 37° C. in 5% CO2 for 48 hours. After incubation, media was decanted from the wells and cells were washed two times with 300 μL of basal MEM-alpha medium (FBS-free). After decanting basal MEM-alpha medium each time, plates were tapped against paper towel to ensure maximum removal of residual media. Test inhibitor dilutions (highest test concentration being 10 μM, 3-fold serial dilution, 10 points) prepared in DMSO (Sigma D2650) were added in incubation mix (maintaining 0.2% final DMSO concentration) containing 0.25 μM 3H-taurocholic acid (ARC ART-1368) and 5 μM of cold taurocholic acid (Sigma T4009). 50 μL of incubation mix containing test inhibitors was then added to the wells (in duplicate) and the plates were incubated for 20 minutes in a CO2 incubator at 37° C. After incubation, the reaction was stopped by keeping the plates on ice water mix for 2-3 minutes and then the incubation mix was aspirated completely from the wells. The wells were washed two times with 250 μL of chilled unlabelled 1 mM taurocholic acid dissolved in HEPES (Gibco 15630080)-buffered (10 mM) HBSS (Gibco 14175079) (pH 7.4). The plates were tapped against a paper towel after every wash to ensure maximum removal of blocking buffer.
(§1) 100 μL of MicroScint-20 (PerkinElmer 6013621) was added to the wells and kept overnight at room temperature before reading the plates in TopCount NXT™ Microplate Scintillation and Luminescence Counter from PerkinElmer under 3H Test protocol (set at 120 seconds reading time per well).
(§2) Preparation of Test Compound Dilutions
(§3) All test compounds were provided in powder form at room temperature. 10 mM DMSO stocks of the test compounds were prepared, aliquoted and stored at −20° C. From the 10 mM DMSO stock of the compounds, a 3-fold serial dilution in DMSO was prepared to get a total of 10 dilutions of the test compounds. 0.5 μL of this dilution in DMSO was added to 250 μL of FBS-free basal media containing 3H-taurocholic acid and cold taurocholic acid to prepare the incubation mixture.

human LBAT = molecular target: T2, human LBAT (Homo sapiens, UniProt Q14973); assay: LBAT (h/m) assay: 3H-taurocholic acid uptake in human LBAT-overexpressing cells; format: cell-based; details: 0.3 μM 3H-taurocholic acid and 7.5 μM cold taurocholic acid, 20 minutes, read-out: hLBAT IC50
T2 construct: expressed in transfected cells; kept under Geneticin selection
T2 sequence (Q14973 1-349): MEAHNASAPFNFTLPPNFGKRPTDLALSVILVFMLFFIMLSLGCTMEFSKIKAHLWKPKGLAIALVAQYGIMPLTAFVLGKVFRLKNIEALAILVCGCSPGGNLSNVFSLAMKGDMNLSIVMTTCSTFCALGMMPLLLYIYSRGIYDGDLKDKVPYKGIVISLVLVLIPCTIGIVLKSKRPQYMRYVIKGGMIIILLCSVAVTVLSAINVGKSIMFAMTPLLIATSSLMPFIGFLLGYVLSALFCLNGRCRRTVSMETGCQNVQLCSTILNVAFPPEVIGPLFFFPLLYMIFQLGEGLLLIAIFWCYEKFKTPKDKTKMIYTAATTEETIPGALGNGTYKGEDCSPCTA
Description: LBAT (h/m) Assay Protocol
20,000 cells (Human or Mouse LBAT-overexpressing cells) were seeded in 96-wells plate (Corning CLS3809) in 100 μL MEM-alpha medium (Gibco 12571-063) supplemented with 10% FBS (Gibco 10438026) containing Geneticin (Gibco 10131-027) (1 mg/mL) and incubated at 37° C. in 5% CO2 for 24 hours. After incubation, media was decanted from the wells and cells were washed two times with 300 μL of basal MEM-alpha medium (FBS-free). After decanting basal MEM-alpha medium each time, plates were tapped against paper towel to ensure maximum removal of residual media. For human LBAT, incubation mix was prepared by adding test inhibitor dilutions (3-fold serial dilution in DMSO (Sigma D2650), 10 points) in MEM-alpha (without FBS) containing 0.3 μM 3H-taurocholic acid (ARC ART-1368) and 7.5 μM cold taurocholic acid (Sigma T4009) (maintaining 0.2% final DMSO concentration). For mouse LBAT, incubation mix was prepared by adding test inhibitor dilutions (3-fold serial dilution in DMSO, 10 points) in MEM-alpha (without FBS) containing 0.3 μM 3H-taurocholic acid and 25 μM cold taurocholic acid maintaining 0.2% final DMSO concentration). 50 μL of incubation mix containing test inhibitors was then added to the wells (in duplicate) and the plates were incubated for 20 minutes in a CO2 incubator at 37° C. After incubation, the reaction was stopped by keeping the plates on ice water mix for 2-3 minutes and then the incubation mix was aspirated completely from the wells. The wells were washed two times with 250 μL of chilled unlabelled 1 mM taurocholic acid dissolved in HEPES (Gibco 15630080)-buffered (10 mM) HBSS (Gibco 14175079) (pH 7.4). The plates were tapped against a paper towel after every wash to ensure maximum removal of blocking buffer.
as §1, with “well, with normal plate orientation).” for “well).”
as §2, §3

[1] = Bidirectional permeability assay (Caco-2 cells); format: in vitro ADME; details: human, FaSSIF donor buffer, 120 minutes at 37° C.
Description: Bidirectional Permeability Assay (Caco-2 Cells)
HepaRG-Based Assay Protocol

Row | Compound | IC50 (human IBAT) | IC50 (human LBAT) | Papp A→B at 120 min, 10 µM ([1]; Caco-2, pH 7.4, absorptive direction (A2B)) | Papp B→A at 120 min, 10 µM ([1]; Caco-2, pH 7.4, secretory direction (B2A))
1 | CCCCC1CN(c2ccccc2)c2cc(SCC)c(O/C=C/C(=O)O)cc2S(=O)(=O)N1 (racemic) [Example 4, (E)-3-((3-Butyl-7-(ethylthio)-1,1-dioxido-5-phenyl-2,3,4,5-tetrahydro-1,2,5-benzothiadiazepin-8-yl)oxy)acrylic acid] | > 10000 nM | 3.4 nM |  | 
2 | CCCCC1CN(c2ccccc2)c2cc(SCC)c(O/C=C(\F)C(=O)O)cc2S(=O)(=O)N1C (racemic) [Example 24, (Z)-3-((3-butyl-7-(ethylthio)-2-methyl-1,1-dioxido-5-phenyl-2,3,4,5-tetrahydro-1,2,5-benzothiadiazepin-8-yl)oxy)-2-fluoroacrylic acid] | 1790 nM | 1.3 nM |  | 
3 | CCCCC1CN(c2ccccc2)c2cc(SCC)c(O/C=C/C(=O)O)cc2S(=O)(=O)N1 (single isomer, unassigned) [Example 5, (E)-3-((3-butyl-7-(ethylthio)-1,1-dioxido-5-phenyl-2,3,4,5-tetrahydro-1,2,5-benzothiadiazepin-8-yl)oxy)acrylic acid] | 8810 nM | 3.4 nM |  | 
4 | CCCCC1CN(c2ccc(F)cc2)c2cc(SC)c(O/C=C(\F)C(=O)O)cc2S(=O)(=O)C1 (single isomer, unassigned) [Example 11, (Z)-3-((3-butyl-5-(4-fluorophenyl)-7-(methylthio)-1,1-dioxido-2,3,4,5-tetrahydro-1,5-benzothiazepin-8-yl)oxy)-2-fluoroacrylic acid] | 519 nM | 0.9 nM |  | 
5 | CCCCC1CN(c2ccc(F)cc2)c2cc(SC)c(O/C=C(\F)C(=O)O)cc2S(=O)(=O)C1 (single isomer, unassigned) [Example 12, (Z)-3-((3-butyl-5-(4-fluorophenyl)-7-(methylthio)-1,1-dioxido-2,3,4,5-tetrahydro-1,5-benzothiazepin-8-yl)oxy)-2-fluoroacrylic acid] | 1420 nM | 15 nM |  | 
6 | CCCCC1CN(c2ccccc2)c2cc(SCC)c(O/C=C(\F)C(=O)O)cc2S(=O)(=O)C1 (single isomer, unassigned) [Example 14, (Z)-3-((3-butyl-7-(ethylthio)-1,1-dioxido-5-phenyl-2,3,4,5-tetrahydro-1,5-benzothiazepin-8-yl)oxy)-2-fluoroacrylic acid] | > 10000 nM | 21 nM |  | 
7 | CCCCC1CN(c2ccc(F)cc2)c2cc(SCC)c(O/C=C(\F)C(=O)O)cc2S(=O)(=O)C1 (single isomer, unassigned) [Example 17, (Z)-3-((3-butyl-7-(ethylthio)-5-(4-fluorophenyl)-1,1-dioxido-2,3,4,5-tetrahydro-1,5-benzothiazepin-8-yl)oxy)-2-fluoroacrylic acid] | > 3330 nM | 5.5 nM |  | 
8 | CCCCC1CN(c2ccc(F)cc2)c2cc(SC)c(O/C=C(\F)C(=O)O)cc2S(=O)(=O)N1C (single isomer, unassigned) [Example 21, (Z)-3-((3-butyl-5-(4-fluorophenyl)-2-methyl-7-(methylthio)-1,1-dioxido-2,3,4,5-tetrahydro-1,2,5-benzothiadiazepin-8-yl)oxy)-2-fluoroacrylic acid] | > 3330 nM | 10.1 nM |  | 
9 | CCCCC1CN(c2ccc(F)cc2)c2cc(SCC)c(O/C=C(\F)C(=O)O)cc2S(=O)(=O)N1C (single isomer, unassigned) [Example 23, (Z)-3-((3-butyl-7-(ethylthio)-5-(4-fluorophenyl)-2-methyl-1,1-dioxido-2,3,4,5-tetrahydro-1,2,5-benzothiadiazepin-8-yl)oxy)-2-fluoroacrylic acid] | > 3330 nM | 70 nM |  | 
10 | CCCCC1CN(c2ccccc2)c2cc(SCC)c(O/C=C(\F)C(=O)O)cc2S(=O)(=O)N1C (single isomer, unassigned) [Example 26, (Z)-3-((3-butyl-7-(ethylthio)-2-methyl-1,1-dioxido-5-phenyl-2,3,4,5-tetrahydro-1,2,5-benzothiadiazepin-8-yl)oxy)-2-fluoroacrylic acid] | 1130 nM | 131 nM |  | 

Results, then the compound that gave them:

Row | IC50 (human IBAT) | IC50 (human LBAT) | Papp A→B at 120 min, 10 µM ([1]; Caco-2, pH 7.4, absorptive direction (A2B)) | Papp B→A at 120 min, 10 µM ([1]; Caco-2, pH 7.4, secretory direction (B2A)) | Compound
11 | 481 nM | 13 nM |  |  | CCCCC1CN(c2ccc(F)cc2)c2cc(SC)c(O/C=C(\F)C(=O)O)cc2S(=O)(=O)N1 (racemic) [Example 27, (Z)-3-((3-butyl-5-(4-fluorophenyl)-7-(methylthio)-1,1-dioxido-2,3,4,5-tetrahydro-1,2,5-benzothiadiazepin-8-yl)oxy)-2-fluoroacrylic acid]
12 | > 10000 nM | 278 nM |  |  | CCCCC1CN(c2ccc(F)cc2)c2cc(SC)c(O/C=C/C(=O)O)cc2S(=O)(=O)N1 (single isomer, unassigned) [Example 2, (E)-3-((3-butyl-5-(4-fluorophenyl)-7-(methylthio)-1,1-dioxido-2,3,4,5-tetrahydro-1,2,5-benzothiadiazepin-8-yl)oxy)acrylic acid]
13 | > 10000 nM | > 333 nM |  |  | CCCCC1CN(c2ccc(F)cc2)c2cc(SCC)c(O/C=C/C(=O)O)cc2S(=O)(=O)C1 (single isomer, unassigned) [Example 8, (E)-3-((3-butyl-7-(ethylthio)-5-(4-fluorophenyl)-1,1-dioxido-2,3,4,5-tetrahydro-1,5-benzothiazepin-8-yl)oxy)acrylic acid]
14 |  | 2 nM | 15.5 ×10⁻⁶ cm/s | 18.6 ×10⁻⁶ cm/s | CCCCC1CN(c2ccc(F)cc2)c2cc(SCC)c(O/C=C/C(=O)O)cc2S(=O)(=O)C1 (single isomer, unassigned) [Example 9, (E)-3-((3-butyl-7-(ethylthio)-5-(4-fluorophenyl)-1,1-dioxido-2,3,4,5-tetrahydro-1,5-benzothiazepin-8-yl)oxy)acrylic acid]
